In the kinase profiling compilation of Christmann-Franck et al. (2016):

What was measured:
Assay in all cases: radiometric filter-binding kinase assay
SYK (human) = SYK (human) (UniProt P43405); details: compound 10.0 µM
MAPK14 (human) = MAPK14 (human) (UniProt Q16539)
NEK2 (human) = NEK2 (human) (UniProt P51955)
INSRR (human) = INSRR (human) (UniProt P14616)
PIM2 (human) = PIM2 (human) (UniProt Q9P1W9); details: compound 1.0 µM
[1] = tested on: RPS6KB1 (human), P23443 [T412E]
CSNK1D (human) = CSNK1D (human) (UniProt P48730)
SRC (human) = SRC (human) (UniProt P12931)
BTK (human) = BTK (human) (UniProt Q06187)
PRKACA (human) = PRKACA (human) (UniProt P17612)
RIPK2 (human) = RIPK2 (human) (UniProt O43353)
EPHB4 (human) = EPHB4 (human) (UniProt P54760)
MAPK15 (human) = MAPK15 (human) (UniProt Q8TD08)
IKBKE (human) = IKBKE (human) (UniProt Q14164)
PRKAA1 or PRKAA2 (rat) = details: accession and sequence are those of the human protein
MKNK2 (human) = MKNK2 (human) (UniProt Q9HBH9)
MAPKAPK3 (human) = MAPKAPK3 (human) (UniProt Q16644)
MAP2K1 (human) = MAP2K1 (human) (UniProt Q02750)
MAPK3 (human) = MAPK3 (human) (UniProt P27361)
[2] = tested on: AKT2 (human), P31751 [S474D]
CSK (human) = CSK (human) (UniProt P41240)
RPS6KA5 KD1 KD2 (human) = RPS6KA5 KD1 KD2 (human) (UniProt O75582); details: compound 1.0 µM
PLK1 (human) = PLK1 (human) (UniProt P53350)
RPS6KA1 KD1 KD2 (human) = RPS6KA1 KD1 KD2 (human) (UniProt Q15418)
RPS6KA3 KD1 KD2 (human) = RPS6KA3 KD1 KD2 (human) (UniProt P51812)
NEK6 (human) = NEK6 (human) (UniProt Q9HC98)
CHEK2 (human) = CHEK2 (human) (UniProt O96017)
EPHB1 (human) = EPHB1 (human) (UniProt P54762)
FLT1 (human) = FLT1 (human) (UniProt P17948)
PAK7 (human) = PAK7 (human) (UniProt Q9P286)
EPHA4 (human) = EPHA4 (human) (UniProt P54764)
IKBKB (human) = IKBKB (human) (UniProt O14920)
CDK2 CCNA2 (human) = CDK2 CCNA2 (human) (UniProt P20248+P24941)
TTK (human) = TTK (human) (UniProt P33981)

IKBKE (human), sequence (Q14164 whole entry, looked up): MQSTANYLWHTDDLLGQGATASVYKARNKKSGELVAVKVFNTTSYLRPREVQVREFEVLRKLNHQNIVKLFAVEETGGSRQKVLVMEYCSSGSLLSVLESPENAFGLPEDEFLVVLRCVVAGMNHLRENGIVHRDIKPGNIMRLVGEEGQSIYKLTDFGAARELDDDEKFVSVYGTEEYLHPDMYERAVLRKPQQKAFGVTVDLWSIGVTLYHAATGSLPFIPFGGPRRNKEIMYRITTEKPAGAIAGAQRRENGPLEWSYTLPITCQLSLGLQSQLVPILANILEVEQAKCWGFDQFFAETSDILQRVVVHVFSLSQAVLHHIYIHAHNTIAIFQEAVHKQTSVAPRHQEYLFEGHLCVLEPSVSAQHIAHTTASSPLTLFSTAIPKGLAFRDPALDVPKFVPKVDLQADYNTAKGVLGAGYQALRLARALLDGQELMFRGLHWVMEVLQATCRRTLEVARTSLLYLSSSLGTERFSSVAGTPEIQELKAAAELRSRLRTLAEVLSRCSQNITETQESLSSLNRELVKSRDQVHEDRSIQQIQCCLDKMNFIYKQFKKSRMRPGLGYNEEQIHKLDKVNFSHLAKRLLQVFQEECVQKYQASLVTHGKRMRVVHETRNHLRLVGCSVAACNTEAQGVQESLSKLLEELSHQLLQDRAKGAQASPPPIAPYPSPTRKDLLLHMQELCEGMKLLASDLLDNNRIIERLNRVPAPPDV
MAPK3 (human), sequence (P27361 whole entry, looked up): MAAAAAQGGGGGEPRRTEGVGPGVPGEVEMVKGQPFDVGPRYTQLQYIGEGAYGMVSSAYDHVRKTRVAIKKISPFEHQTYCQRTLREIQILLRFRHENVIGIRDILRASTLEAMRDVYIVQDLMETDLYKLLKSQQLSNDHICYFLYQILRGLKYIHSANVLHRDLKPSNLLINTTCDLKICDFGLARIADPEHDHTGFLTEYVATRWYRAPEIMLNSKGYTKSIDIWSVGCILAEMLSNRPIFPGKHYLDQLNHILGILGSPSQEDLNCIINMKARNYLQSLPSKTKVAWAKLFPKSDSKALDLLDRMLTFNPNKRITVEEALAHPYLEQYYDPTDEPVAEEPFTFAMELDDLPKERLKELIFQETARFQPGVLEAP
AKT2 (human), P31751 [S474D], sequence (P31751 whole entry S474D, looked up): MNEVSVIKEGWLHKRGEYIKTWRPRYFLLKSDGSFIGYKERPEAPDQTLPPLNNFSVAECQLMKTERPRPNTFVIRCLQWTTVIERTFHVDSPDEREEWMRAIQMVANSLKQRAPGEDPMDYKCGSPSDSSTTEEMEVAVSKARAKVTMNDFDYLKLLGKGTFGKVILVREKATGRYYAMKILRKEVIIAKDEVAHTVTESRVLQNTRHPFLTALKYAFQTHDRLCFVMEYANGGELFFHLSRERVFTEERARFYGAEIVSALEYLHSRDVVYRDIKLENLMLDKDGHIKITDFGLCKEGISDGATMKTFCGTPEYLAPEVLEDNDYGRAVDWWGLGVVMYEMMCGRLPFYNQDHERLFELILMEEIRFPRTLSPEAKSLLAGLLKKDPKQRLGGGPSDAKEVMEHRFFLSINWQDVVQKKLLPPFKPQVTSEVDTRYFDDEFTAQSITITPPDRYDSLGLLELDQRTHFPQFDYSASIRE
MKNK2 (human), sequence (Q9HBH9 whole entry, looked up): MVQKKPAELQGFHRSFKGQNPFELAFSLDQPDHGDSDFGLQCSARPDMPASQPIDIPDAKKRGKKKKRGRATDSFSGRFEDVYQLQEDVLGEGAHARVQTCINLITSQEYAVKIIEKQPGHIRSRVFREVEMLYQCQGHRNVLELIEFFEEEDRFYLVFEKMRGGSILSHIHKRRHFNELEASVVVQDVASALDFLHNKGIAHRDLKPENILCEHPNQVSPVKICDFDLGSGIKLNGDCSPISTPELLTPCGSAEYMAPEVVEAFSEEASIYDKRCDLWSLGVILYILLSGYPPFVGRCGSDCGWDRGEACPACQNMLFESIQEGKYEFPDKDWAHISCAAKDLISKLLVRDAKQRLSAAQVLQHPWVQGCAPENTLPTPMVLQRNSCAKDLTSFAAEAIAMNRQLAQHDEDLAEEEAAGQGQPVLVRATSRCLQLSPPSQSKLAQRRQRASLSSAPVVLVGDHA
CSNK1D (human), sequence (P48730 whole entry, looked up): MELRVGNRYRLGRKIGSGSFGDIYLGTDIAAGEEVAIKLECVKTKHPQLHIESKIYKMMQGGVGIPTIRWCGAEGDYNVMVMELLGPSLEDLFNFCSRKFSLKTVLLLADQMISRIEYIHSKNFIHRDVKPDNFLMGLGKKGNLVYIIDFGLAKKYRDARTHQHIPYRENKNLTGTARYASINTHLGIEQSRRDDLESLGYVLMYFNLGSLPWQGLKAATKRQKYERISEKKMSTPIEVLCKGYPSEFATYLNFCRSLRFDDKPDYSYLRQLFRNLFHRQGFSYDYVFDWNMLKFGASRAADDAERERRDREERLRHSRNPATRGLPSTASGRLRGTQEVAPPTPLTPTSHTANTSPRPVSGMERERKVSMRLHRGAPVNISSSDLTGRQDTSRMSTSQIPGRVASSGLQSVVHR
CHEK2 (human), sequence (O96017 whole entry, looked up): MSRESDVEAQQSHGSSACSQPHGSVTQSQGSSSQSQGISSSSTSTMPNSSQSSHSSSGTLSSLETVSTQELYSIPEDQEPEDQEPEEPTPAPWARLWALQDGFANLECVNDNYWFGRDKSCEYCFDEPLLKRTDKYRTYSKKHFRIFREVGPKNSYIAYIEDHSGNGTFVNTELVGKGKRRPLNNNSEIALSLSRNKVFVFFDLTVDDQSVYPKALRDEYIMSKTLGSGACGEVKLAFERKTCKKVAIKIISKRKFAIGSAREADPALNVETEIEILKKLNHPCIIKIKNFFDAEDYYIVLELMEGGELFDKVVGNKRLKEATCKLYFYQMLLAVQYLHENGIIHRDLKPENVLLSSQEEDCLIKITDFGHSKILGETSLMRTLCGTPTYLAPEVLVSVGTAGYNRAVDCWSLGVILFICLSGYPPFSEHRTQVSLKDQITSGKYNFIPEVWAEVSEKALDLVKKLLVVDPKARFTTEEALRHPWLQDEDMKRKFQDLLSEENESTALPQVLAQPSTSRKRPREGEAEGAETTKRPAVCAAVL
RIPK2 (human), sequence (O43353 whole entry, looked up): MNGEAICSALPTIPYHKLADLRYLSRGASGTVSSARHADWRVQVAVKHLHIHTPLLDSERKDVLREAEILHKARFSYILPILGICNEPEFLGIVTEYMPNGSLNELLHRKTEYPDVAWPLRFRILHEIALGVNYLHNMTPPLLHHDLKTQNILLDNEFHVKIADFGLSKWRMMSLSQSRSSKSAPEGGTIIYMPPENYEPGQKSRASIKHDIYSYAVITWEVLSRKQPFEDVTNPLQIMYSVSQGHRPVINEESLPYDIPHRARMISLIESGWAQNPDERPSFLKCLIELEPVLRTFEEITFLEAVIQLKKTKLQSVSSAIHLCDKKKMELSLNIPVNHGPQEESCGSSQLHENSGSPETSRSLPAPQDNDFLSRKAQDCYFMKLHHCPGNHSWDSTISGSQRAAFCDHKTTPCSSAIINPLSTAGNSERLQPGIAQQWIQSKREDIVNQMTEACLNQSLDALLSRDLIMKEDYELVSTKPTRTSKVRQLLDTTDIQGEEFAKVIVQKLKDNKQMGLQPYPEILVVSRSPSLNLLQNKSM
MAPKAPK3 (human), sequence (Q16644 whole entry, looked up): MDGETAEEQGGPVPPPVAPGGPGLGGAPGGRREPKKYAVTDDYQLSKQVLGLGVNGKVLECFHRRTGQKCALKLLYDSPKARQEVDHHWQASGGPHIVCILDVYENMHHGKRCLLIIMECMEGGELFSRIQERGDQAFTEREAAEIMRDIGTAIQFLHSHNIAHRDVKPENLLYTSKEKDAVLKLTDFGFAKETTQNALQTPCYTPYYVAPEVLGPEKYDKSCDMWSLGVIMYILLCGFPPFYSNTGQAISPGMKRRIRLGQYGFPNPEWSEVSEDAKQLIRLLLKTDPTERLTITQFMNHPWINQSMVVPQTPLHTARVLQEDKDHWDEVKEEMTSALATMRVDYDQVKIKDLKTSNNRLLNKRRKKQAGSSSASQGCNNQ
NEK6 (human), sequence (Q9HC98 whole entry, looked up): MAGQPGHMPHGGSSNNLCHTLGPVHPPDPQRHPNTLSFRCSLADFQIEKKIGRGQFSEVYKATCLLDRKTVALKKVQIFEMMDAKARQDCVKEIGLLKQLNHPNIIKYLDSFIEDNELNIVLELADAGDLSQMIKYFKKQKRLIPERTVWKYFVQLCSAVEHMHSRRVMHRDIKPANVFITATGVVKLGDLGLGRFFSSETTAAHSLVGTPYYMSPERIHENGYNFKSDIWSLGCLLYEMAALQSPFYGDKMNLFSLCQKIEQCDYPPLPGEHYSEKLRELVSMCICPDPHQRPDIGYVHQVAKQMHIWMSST
BTK (human), sequence (Q06187 whole entry, looked up): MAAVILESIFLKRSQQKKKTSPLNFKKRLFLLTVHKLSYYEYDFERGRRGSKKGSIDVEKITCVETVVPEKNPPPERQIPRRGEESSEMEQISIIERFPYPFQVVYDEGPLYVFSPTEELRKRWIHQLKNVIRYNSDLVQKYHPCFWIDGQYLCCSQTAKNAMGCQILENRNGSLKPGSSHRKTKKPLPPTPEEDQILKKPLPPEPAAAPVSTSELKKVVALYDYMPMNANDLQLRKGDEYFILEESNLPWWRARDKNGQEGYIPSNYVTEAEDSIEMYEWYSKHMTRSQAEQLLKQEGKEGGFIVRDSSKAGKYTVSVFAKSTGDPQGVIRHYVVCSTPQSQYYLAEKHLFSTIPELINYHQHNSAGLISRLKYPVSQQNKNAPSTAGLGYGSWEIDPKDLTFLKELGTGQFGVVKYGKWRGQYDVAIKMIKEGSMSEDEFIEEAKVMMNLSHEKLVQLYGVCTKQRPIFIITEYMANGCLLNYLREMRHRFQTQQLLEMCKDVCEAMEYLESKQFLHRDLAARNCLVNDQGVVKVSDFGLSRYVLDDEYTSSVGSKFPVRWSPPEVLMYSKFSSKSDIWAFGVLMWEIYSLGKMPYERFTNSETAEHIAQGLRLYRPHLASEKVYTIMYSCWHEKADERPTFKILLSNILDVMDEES

SMILES: Nc1cccc2c1CN(C1CCC(=O)NC1=O)C2=O (stereo not given)
- residual activity (SYK (human)): 114%
- residual activity (MAPK14 (human); compound 1.0 µM): 105%
- residual activity (MAPK14 (human); compound 10.0 µM): 103%
- residual activity (NEK2 (human); compound 1.0 µM): 97%
- residual activity (NEK2 (human); compound 10.0 µM): 96%
- residual activity (INSRR (human); compound 1.0 µM): 102%
- residual activity (INSRR (human); compound 10.0 µM): 109%
- residual activity (PIM2 (human)): 98%
- residual activity ([1]; compound 1.0 µM): 94%
- residual activity ([1]; compound 10.0 µM): 93%
- residual activity (CSNK1D (human); compound 1.0 µM): 102%
- residual activity (CSNK1D (human); compound 10.0 µM): 97%
- residual activity (SRC (human); compound 1.0 µM): 105%
- residual activity (SRC (human); compound 10.0 µM): 114%
- residual activity (BTK (human); compound 1.0 µM): 104%
- residual activity (BTK (human); compound 10.0 µM): 107%
- residual activity (PRKACA (human); compound 1.0 µM): 101%
- residual activity (PRKACA (human); compound 10.0 µM): 84%
- residual activity (RIPK2 (human); compound 1.0 µM): 97%
- residual activity (RIPK2 (human); compound 10.0 µM): 106%
- residual activity (EPHB4 (human); compound 1.0 µM): 91%
- residual activity (EPHB4 (human); compound 10.0 µM): 99%
- residual activity (MAPK15 (human); compound 1.0 µM): 92%
- residual activity (MAPK15 (human); compound 10.0 µM): 98%
- residual activity (IKBKE (human); compound 1.0 µM): 119%
- residual activity (IKBKE (human); compound 10.0 µM): 99%
- residual activity (PRKAA1 or PRKAA2 (rat); compound 1.0 µM): 98%
- residual activity (PRKAA1 or PRKAA2 (rat); compound 10.0 µM): 92%
- residual activity (MKNK2 (human); compound 1.0 µM): 80%
- residual activity (MKNK2 (human); compound 10.0 µM): 89%
- residual activity (MAPKAPK3 (human); compound 1.0 µM): 94%
- residual activity (MAPKAPK3 (human); compound 10.0 µM): 86%
- residual activity (MAP2K1 (human); compound 1.0 µM): 90%
- residual activity (MAP2K1 (human); compound 10.0 µM): 92%
- residual activity (MAPK3 (human); compound 1.0 µM): 90%
- residual activity (MAPK3 (human); compound 10.0 µM): 94%
- residual activity ([2]; compound 1.0 µM): 85%
- residual activity ([2]; compound 10.0 µM): 94%
- residual activity (CSK (human); compound 1.0 µM): 87%
- residual activity (CSK (human); compound 10.0 µM): 97%
- residual activity (RPS6KA5 KD1 KD2 (human)): 91%
- residual activity (PLK1 (human); compound 1.0 µM): 104%
- residual activity (PLK1 (human); compound 10.0 µM): 96%
- residual activity (RPS6KA1 KD1 KD2 (human); compound 1.0 µM): 98%
- residual activity (RPS6KA1 KD1 KD2 (human); compound 10.0 µM): 97%
- residual activity (RPS6KA3 KD1 KD2 (human); compound 1.0 µM): 93%
- residual activity (RPS6KA3 KD1 KD2 (human); compound 10.0 µM): 101%
- residual activity (NEK6 (human); compound 1.0 µM): 105%
- residual activity (NEK6 (human); compound 10.0 µM): 96%
- residual activity (CHEK2 (human); compound 1.0 µM): 96%
- residual activity (CHEK2 (human); compound 10.0 µM): 93%
- residual activity (EPHB1 (human); compound 1.0 µM): 115%
- residual activity (EPHB1 (human); compound 10.0 µM): 126%
- residual activity (FLT1 (human); compound 1.0 µM): 100%
- residual activity (FLT1 (human); compound 10.0 µM): 110%
- residual activity (PAK7 (human); compound 1.0 µM): 86%
- residual activity (PAK7 (human); compound 10.0 µM): 77%
- residual activity (EPHA4 (human); compound 1.0 µM): 110%
- residual activity (EPHA4 (human); compound 10.0 µM): 124%
- residual activity (IKBKB (human); compound 1.0 µM): 100%
- residual activity (IKBKB (human); compound 10.0 µM): 106%
- residual activity (CDK2 CCNA2 (human); compound 1.0 µM): 96%
- residual activity (CDK2 CCNA2 (human); compound 10.0 µM): 87%
- residual activity (TTK (human); compound 1.0 µM): 104%
- residual activity (TTK (human); compound 10.0 µM): 118%
